Measurements as given in US6589452B2, “Photochemically controlled photonic crystal diffraction” (University of Pittsburgh, priority 2000, dated 2003).

Legend:
Assay type in all cases: physicochemical
[1] = water solubility of the azobenzene derivative; conditions: compared with non-derivatized azobenzene
From the text: In addition, it retains similar photochemical properties as non-derivatized azobenzene.
In a particular embodiment of the invention, an azobenzene derivative, which is modified in order to increase its water solubility, is attached to the reactive PCCA through the reaction of the epoxide groups inside the hydrogel with primary amino groups on the azobenzene derivative. See Example 3. Hereinafter, the functionalized PCCA having azobenzene attached thereto is referred to as “AZO-PCCA”. […] For example, spiropyran may be attached to the gel by directly copolymerizing the spiropyran with the acrylamide. The photosensitive components of the present invention may be synthesized by methods well-known in the art.

[2] = thermal relaxation in the dark (cis-trans azobenzene isomerization); conditions: azobenzene derivative in solution; 24° C.; monoexponential
Method: FIG. 3 is a graph showing the characteristic time for UV irradiation and thermal relaxation of the AZO-PCCA. The characteristic time for UV irradiation (trans-cis azobenzene isomerization), which was performed at 365 nm, 10 mW, is ˜50 seconds (curve 1 and 2). The response time of the PCCA diffraction shift could be reduced by increasing the actinic light power. In addition, the characteristic time for thermal relaxation (cis-trans azobenzene isomerization), which was performed by placing the AZO-PCCA in the dark, is ˜10 days (curve 3 and 4).
(§1) In addition, a shoulder arising from the nπ* transition is evident at long wavelength side of the ππ* peak. This peak, due to nπ* transition, at 434 nm becomes dominant when a photostationary state under UV irradiation is reached (mainly cis-azobenzene). The intensity of the nπ* peak increases as the intensity of the ππ* band decreases due to the conversion of trans isomer to cis under UV light (FIG. 1). This is a typical behavior of azobenzene-type molecules. The photochemical behavior of a water solution of the azobenzene derivative of the present invention was determined under UV irradiation (365 nm, 20 mW) and irradiation with visible light ([…], ˜50 mW). Under 488 nm irradiation, the trans-isomer is restored and the photostationary state under visible light is very close to the equilibrium state in dark. […]

[3] = photochemical behavior of a water solution of the azobenzene derivative under UV irradiation; conditions: UV 365 nm, 20 mW, monoexponential fit
From the text: as §1, with “dark. When the azobenzene derivative was exposed to 365 nm irradiation, kinetic data fitted well to monoexponential function with the characteristic time of ˜40 seconds. In addition, thermal relaxation in dark follows monoexponential function with characteristic time of about 10 days at 24° C. Furthermore, the photochemical behavior of the azobenzene derivative of the present invention when covalently attached to the functionalized PCCA of the present invention was close to that of the azobenzene derivative in solution.” for “dark.”

For `NCc1ccc(N=Nc2ccc(OCC(O)CO)cc2)cc1` (stereo not drawn) [azobenzene derivative, 4-N-aminomethylbenzolazo-4-phenoxy glycerol ether], the water solubility [1] was “improved water solubility”, the “characteristic time of thermal relaxation in dark” value [2] was “about 10 days” and the “characteristic time, 365 nm irradiation (trans-cis)” value [3] was ~40 s.
